# Test results from patent US20140051729A1, “COMPOSITIONS AND METHODS FOR TREATING DEGENERATIVE MUSCLE CONDITIONS” (University of Washington, priority 2011, published 2014).
# Test system: mdx mice
# Assay: Histopathology of CTX injured and uninjured muscles of aged mdx mice after IP THI
# Type: in vivo, mouse
# Procedure: Muscle repair in mdx mice become impaired during aging resulting in muscle atrophy and dystrophy. The effects of THI on the histopathology were assessed in injured and uninjured muscles from two groups of aged mdx mice (n=6, 11 month-old females and n=7, 16 month-old males). In this experiment, right TAs and quadriceps muscles were uninjured, while left counterparts were injured using CTX. The mdx mice were injected with THI, or PBS as a vehicle control, immediately following injury with CTX 5 times during a 3-day period. Injured and uninjured muscles were harvested 18 days post injury to survey the effects of THI on muscle repair. […] Injured muscles were lighter than uninjured muscles in vehicle treated mice, an approximate weight loss of 20% (*p<0.05).
# The left TAs and quadriceps of six, 10 month old female mdx4cv mice were injected with 50 μl and 100 μl CTX respectively. Three mice were injected IP with 0.15 mg/ml THI in PBS, twice daily (injections 8 hours apart) immediately after and for the first three days following injury. The three remaining animals were injected IP with PBS as vehicle controls. 1% Evans Blue dye was injected IV on day 17 post CTX, to label persistently damaged (dye permeable) muscle fibers. Animals were euthanized 18 days post injury and muscles were frozen under liquid nitrogen cooled isopentane in optimal cutting temperature (OCT). All myofibers were measured for the minimum diameters on the cross-sections of mouse quadriceps muscle using image J software. 750˜850 myofibers were counted for three mice treated with PBS or THI with or without CTX injury.
# All mouse muscles were frozen directly in OCT with liquid nitrogen cooled in isopentane and sections of 8 μm thickness were obtained. Tissue for x-gal staining, was fixed for 10 min with 2% formaldehyde/0.2% glutaraldehyde and incubated overnight at 37° C. with staining buffer (PBS with 1 mg/ml x-gal, 5 mM potassium ferricyanide, 5 mM potassium ferrocyanide, and 2 mM […] (all from Fisher). Oil Red-O and Picrosirius red staining were done following established protocols. For eMyHC staining, tissue was first fixed with 2% formaldehyde for 5 min, treated with streptavidin/avidin blocking kit (Vector labs), and blocked with IgG block from M.O.M kit (Vector Labs) for 5 hrs at 4° C. Following blockade, concentrated mouse anti-eMyHC (clone F1.652 received at 357 μg/ml IgG) obtained from the developmental studies hybridoma bank (DHSB, University of Iowa) was administered at 1:400 dilution, overnight at 4° C. The remainder of the staining was done following mouse-on-mouse (M.O.M) kit staining instructions. For laminin staining tissue was also fixed with 2% formaldehyde for 5 min, and then treated with polyclonal rabbit anti-laminin (Sigma) for 1 hr at a 1:400 dilution in PBS+1% BSA. Following washes, Alexa Fluor 488 conjugated goat anti-rabbit IgG (Invitrogen) was administered at 1:800 dilution for 1 hr. Controls omitting the primary antibody were included with all staining. Staining quantifications were all done using ImageJ v1.40 (Wayne Rasband, NIH) cell counter plugin (Kurt De Vos, University of Sheffield). Calculations, statistics, and graphs were generated with Microsoft Excel. Brightfield photographs were captured using either a Fisher Micromaster digital inverted or upright microscopes with Micron software. Fluorescent photographs were captured with a monochromatic camera using a Zeiss Axiovert 200 microscope. Individual fluorescent channels were colored and merged using Adobe Photoshop CS2. Brightness contrast levels were adjusted to increase visibility and reduce background in most photographs.
# Both stainings were done using freshly frozen mdx muscles. Pax7 staining was done as outlined by Clever et al., with slight modification (Clever J L, et al. Am J Physiol Cell Physiol. 2010; 298:C1087-C1099). Sections were fixed overnight in 4% formaldehyde (from PFA powder) at 4° C. […]
# [1] = 11MO and 16MO mdx mice, Oil Red-O
# [2] = 11MO mdx mice, dye injected day 17 post injury
# [3] = 11 month-old mdx mice, vs vehicle
# [4] = aged mdx mice, 18 days post CTX injury, vs vehicle
smiles,measurement,setting,value
"CC(=O)c1ncc([C@@H](O)[C@H](O)[C@H](O)CO)[nH]1 [THI, 1-[5-[(1R,2S,3R)-1,2,3,4-tetrahydroxybutyl]-1H-imidazol-2-yl]-ethanone]",ratio of fat deposition in injured TAs over uninjured contralateral TAs,[1],significantly reduced in THI treated vs. control animals in 11MO (*) but not 16 MO mdx mice
same,ratio of injured over uninjured fat deposits in quadriceps,[1],significantly reduced in 16MO (#) but not in the 11MO mdx mice
same,Evans Blue positive fibers in injured quadriceps over entire cross-sectional area,[2],< 5
same,Evans Blue positive fibers in uninjured contralateral quadriceps,[2],almost zero
same,mean number of satellite cells (Pax7+ nuclei) in limb muscles (TAs and Quadriceps),[3],significant increase
same,"minimum fiber diameter, uninjured and injured quadriceps and diaphragms",[3],significant increase
same,"ratio of dry weight of CTX injured over uninjured quadriceps, normalized to body weight","16 month-old mdx males, 18 days post injury",ratio close to one
same,"muscle fiber size, uninjured quadriceps","16 month-old mdx males, vs vehicle",significant increase
same,overall histological muscle morphology of injured muscles,"aged mdx mice, 18 days post CTX injury",more organized
same,average fat deposition in injured TAs (Oil Red-O),[4],significantly lower average fat deposition
same,fibrosis in injured TAs and quadriceps muscles (Picrosirius Red),[4],significantly reduced fibrosis
